These results are taken from patent US9856254B2, “Alkoxy substituted imidazoquinolines” (3M INNOVATIVE PROPERTIES COMPANY, priority 2003, dated 2018).

As usually defined, the melting point is the temperature, or range, at which the solid turns liquid.

In the case of `CCOCc1nc2c(N)nc3cc(OCCCCCCNS(C)(=O)=O)ccc3c2n1CC(C)(C)NC(=O)NC(C)C` [Example 371, N-(6-{[4-Amino-2-(ethoxymethyl)-1-(2-{[(isopropylamino)carbonyl]amino}-2-methylpropyl)-1H-imidazo[4,5-c]quinolin-7-yl]oxy}hexyl)methanesulfonamide], the melting point fell in the range of 190 to 194 °C.
To `CCOCc1nc2c(N)nc3cc(OCCNC(=O)OC(C)(C)C)ccc3c2n1CC1COC(C)(C)O1` (centres unmarked) [Example 372, tert-Butyl 2-{[4-amino-1-[(2,2-dimethyl-1,3-dioxolan-4-yl)methyl]-2-(ethoxymethyl)-1H-imidazo[4,5-c]quinolin-7-yl]oxy}ethylcarbamate] belongs 82 to 84 °C; to `CCOCc1nc2c(N)nc3cc(OC4CCN(C(=O)OC(C)(C)C)CC4)ccc3c2n1CC1COC(C)(C)O1` (centres unmarked) [Example 374, tert-Butyl 4-{[4-amino-1-[(2,2-dimethyl-1,3-dioxolan-4-yl)methyl]-2-(ethoxymethyl)-1H-imidazo[4,5-c]quinolin-7-yl]oxy}piperidine-1-carboxylate], 158 to 159 °C; to `CCCn1c(CCOC)nc2c(N)nc3cc(OC4CCN(C(=O)OC(C)(C)C)CC4)ccc3c21` [Example 387, tert-Butyl 4-{[4-amino-2-(2-methoxyethyl)-1-propyl-1H-imidazo[4,5-c]quinolin-7-yl]oxy}piperidine-1-carboxylate], 173 to 175 °C.
For `CCCn1c(CCOC)nc2c(N)nc3cc(OC4CCN(C(=O)NC(C)C)CC4)ccc3c21` [Example 388, 4-{[4-Amino-2-(2-methoxyethyl)-1-propyl-1H-imidazo[4,5-c]quinolin-7-yl]oxy}-N-isopropylpiperidine-1-carboxamide] the value was 176 to 179 °C; for `CCCn1c(CCOC)nc2c(N)nc3cc(OC4CCN(C(=O)C(C)C)CC4)ccc3c21` [Example 389, 7-[(1-Isobutyrylpiperidin-4-yl)oxy]-2-(2-methoxyethyl)-1-propyl-1H-imidazo[4,5-c]quinolin-4-amine], 165 to 166 °C.
For `CCCn1c(CCOC)nc2c(N)nc3cc(OC4CCN(S(C)(=O)=O)CC4)ccc3c21` [Example 390, 2-(2-Methoxyethyl)-7-{[1-(methylsulfonyl)piperidin-4-yl]oxy}-1-propyl-1H-imidazo[4,5-c]quinolin-4-amine] the value was 224 to 225.5 °C.
As for `CCCn1c(CCOC)nc2c(N)nc3cc(OC4CCN(C(N)=O)CC4)ccc3c21` [Example 391, 4-{[4-Amino-2-(2-methoxyethyl)-1-propyl-1H-imidazo[4,5-c]quinolin-7-yl]oxy}piperidine-1-carboxamide], the melting point was in the range of 207 to 208.5 °C.
For `CCCn1c(CCOC)nc2c(N)nc3cc(OCCCS(C)(=O)=O)ccc3c21` [Example 392, 2-(2-Methoxyethyl)-7-[3-(methylsulfonyl)propoxy]-1-propyl-1H-imidazo[4,5-c]quinolin-4-amine] the value was 170 to 171 °C.
To `CCCn1c(CCOC)nc2c(N)nc3cc(OCCCNC(=O)OC(C)(C)C)ccc3c21` [Example 393, tert-Butyl 3-{[4-amino-2-(2-methoxyethyl)-1-propyl-1H-imidazo[4,5-c]quinolin-7-yl]oxy}propylcarbamate] belongs 133.5 to 135 °C; to `CCCn1c(CCOC)nc2c(N)nc3cc(OCCCN)ccc3c21` [Example 394, 7-(3-Aminopropoxy)-2-(2-methoxyethyl)-1-propyl-1H-imidazo[4,5-c]quinolin-4-amine], 165 to 166.5 °C; to `CCCn1c(CCO)nc2c(N)nc3cc(OCCCNC(=O)C(C)C)ccc3c21` [Example 395, N-(3-{[4-Amino-2-(2-hydroxyethyl)-1-propyl-1H-imidazo[4,5-c]quinolin-7-yl]oxy}propyl)-2-methylpropanamide], 190.5 to 192 °C.
To `CCCn1c(CCO)nc2c(N)nc3cc(OCCCNC(=O)c4cccnc4)ccc3c21` [Example 396, N-(3-{[4-Amino-2-(2-hydroxyethyl)-1-propyl-1H-imidazo[4,5-c]quinolin-7-yl]oxy}propyl)nicotinamide] belongs 183.5 to 184.5 °C; to `CCOCc1nc2c(N)nc3cc(OCCCN4CCCC4=O)ccc3c2n1CCCCNC(=O)OC(C)(C)C` [Example 397, tert-Butyl 4-{4-amino-2-(ethoxymethyl)-7-[3-(2-oxopyrrolidin-1-yl)propoxy]-1H-imidazo[4,5-c]quinolin-1-yl}butylcarbamate], 134.5 to 136 °C.
For `CCOCc1nc2c(N)nc3cc(OCCCN4CCCC4=O)ccc3c2n1CCCCNC(=O)NC(C)C` [Example 399, N-(4-{4-Amino-2-(ethoxymethyl)-7-[3-(2-oxopyrrolidin-1-yl)propoxy]-1H-imidazo[4,5-c]quinolin-1-yl}butyl)-N′-isopropylurea], the melting point was 98 to 101 °C.
Molecule `CCOCc1nc2c(N)nc3cc(OCCCN4CCCC4=O)ccc3c2n1CCCCNS(C)(=O)=O` [Example 400, N-(4-{4-Amino-2-(ethoxymethyl)-7-[3-(2-oxopyrrolidin-1-yl)propoxy]-1H-imidazo[4,5-c]quinolin-1-yl}butyl)methanesulfonamide] returned a melting point of 157 °C.
To `CCOCc1nc2c(N)nc3cc(OC4CCOC4)ccc3c2n1CCCCN1CCCS1(=O)=O` (centres unmarked) [Example 401, 1-[4-(1,1-Dioxidoisothiazolidin-2-yl)butyl]-2-(ethoxymethyl)-7-(tetrahydrofuran-3-yloxy)-1H-imidazo[4,5-c]quinolin-4-amine] belongs 195.5 to 197 °C; to `CCOCc1nc2c(N)nc3cc(OCCCN4CCCC4=O)ccc3c2n1CCCCN1CCCS1(=O)=O` [Example 402, 1-(3-{[4-Amino-1-[4-(1,1-dioxidoisothiazolidin-2-yl)butyl]-2-(ethoxymethyl)-1H-imidazo[4,5-c]quinolin-7-yl]oxy}propyl)pyrrolidin-2-one], 142 to 144 °C; to `Cc1nc2c(N)nc3cc(OCCC4CCN(C(=O)NC5CCCCC5)CC4)ccc3c2n1CC(C)C` [Example 403, 4-{2-[(4-Amino-1-isobutyl-2-methyl-1H-imidazo[4,5-c]quinolin-7-yl)oxy]ethyl}-N-cyclohexylpiperidine-1-carboxamide], 213.7 to 215.7 °C.
To `CCCn1c(COCC)nc2c(N)nc3ccc(OCC(=O)N4CCN(C(=O)OC(C)(C)C)CC4)cc3c21` [Example 404, tert-Butyl 4-({[4-amino-2-(ethoxymethyl)-1-propyl-1H-imidazo[4,5-c]quinolin-8-yl]oxy}acetyl)piperazine-1-carboxylate] belongs 192 to 197 °C (dec.); to `CCCn1c(COCC)nc2c(N)nc3ccc(OCCCN4CCCC4=O)cc3c21` [Example 405, 1-(3-{[4-Amino-2-(ethoxymethyl)-1-propyl-1H-imidazo[4,5-c]quinolin-8-yl]oxy}propyl)pyrrolidin-2-one], 188.5 to 190 °C.
For `CCCn1c(COCC)nc2c(N)nc3ccc(OC4CCOC4)cc3c21` (centres unmarked) [Example 406, 2-(Ethoxymethyl)-1-propyl-8-(tetrahydrofuran-3-yloxy)-1H-imidazo[4,5-c]quinolin-4-amine] the value was 173 to 175 °C; for `CCCn1c(COCC)nc2c(N)nc3ccc(OCCCCCCNC(=O)C(C)C)cc3c21` [Example 407, N-(6-{[4-Amino-2-(ethoxymethyl)-1-propyl-1H-imidazo[4,5-c]quinolin-8-yl]oxy}hexyl)-2-methylpropanamide], 136 to 138 °C.
In turn, `CCCn1c(COCC)nc2c(N)nc3ccc(OCCCCCCNC(=O)NC(C)C)cc3c21` [Example 408, N-(6-{[4-Amino-2-(ethoxymethyl)-1-propyl-1H-imidazo[4,5-c]quinolin-8-yl]oxy}hexyl)-N′-isopropylurea] gave a melting point of 167 to 169 °C.
For `CCCn1c(COCC)nc2c(N)nc3ccc(OCCCCCCNS(C)(=O)=O)cc3c21` [Example 409, N-(6-{[4-Amino-2-(ethoxymethyl)-1-propyl-1H-imidazo[4,5-c]quinolin-8-yl]oxy}hexyl)methanesulfonamide] the value was 164 to 167 °C; for `CCCn1c(COCC)nc2c(N)nc3ccc(OC4CCN(C(=O)OC(C)(C)C)CC4)cc3c21` [Example 410, tert-Butyl 4-{[4-amino-2-(ethoxymethyl)-1-propyl-1H-imidazo[4,5-c]quinolin-8-yl]oxy}piperidine-1-carboxylate], 179.5 to 181 °C; for `CCCn1c(COCC)nc2c(N)nc3ccc(OC4CCNCC4)cc3c21` [Example 411, 2-(Ethoxymethyl)-8-(piperidin-4-yloxy)-1-propyl-1H-imidazo[4,5-c]quinolin-4-amine], 176 to 178 °C.
To `CCCn1c(COCC)nc2c(N)nc3ccc(OC4CCN(C(=O)NC(C)C)CC4)cc3c21` [Example 412, 4-{[4-Amino-2-(ethoxymethyl)-1-propyl-1H-imidazo[4,5-c]quinolin-8-yl]oxy}-N-isopropylpiperidine-1-carboxamide] belongs 236.5 to 239 °C.
For `CCCn1c(COCC)nc2c(N)nc3ccc(OC4CCN(S(C)(=O)=O)CC4)cc3c21` [Example 413, 2-(Ethoxymethyl)-8-{[1-(methylsulfonyl)piperidin-4-yl]oxy}-1-propyl-1H-imidazo[4,5-c]quinolin-4-amine] the value was 240 to 243.5 °C; for `CCCn1c(COCC)nc2c(N)nc3ccc(OC4CCN(C(=O)C(C)C)CC4)cc3c21` [Example 414, 2-(Ethoxymethyl)-8-[(1-isobutyrylpiperidin-4-yl)oxy]-1-propyl-1H-imidazo[4,5-c]quinolin-4-amine], 177 to 179 °C.
For `CCCn1c(COCC)nc2c(N)nc3cc(OC4CCN(C(=O)OC(C)(C)C)CC4)ccc3c21` [Example 415, tert-Butyl 4-{[4-amino-2-(ethoxymethyl)-1-propyl-1H-imidazo[4,5-c]quinolin-7-yl]oxy}piperidine-1-carboxylate], the melting point lay within 194 to 195 °C.
For `CCCn1c(COCC)nc2c(N)nc3cc(OC4CCNCC4)ccc3c21` [Example 416, 2-(Ethoxymethyl)-7-(piperidin-4-yloxy)-1-propyl-1H-imidazo[4,5-c]quinolin-4-amine] the value was 202 to 204 °C.
